Measurements as given in EP0891764B1, “Ethanolic solutions of N-pentadecanoylisoleucine and use thereof in cosmetics” (KASHIMA OIL COMPANY, priority 1997, dated 1999).

Columns and labels:
[1] = test system: male mice aged 8 weeks of C3H series; assay: Hair growth (retrichogenous) test on depilated backs of mice, visual observation versus ethanol only; format: in vivo; design: key: ⓞ: rapid and excellent retrichogenous action; ○: rapid and good retrichogenous action; Δ: slow and slight retrichogenous action; conditions: 1% by weight in ethanol, 0.1 mℓ applied to depilated back once a day over 3 weeks; visual comparison with ethanol only
Description: The results are given also in Table 1. […] Table 1

[2] = Solubility in 70% ethanol at 10°C
Description: A group of eight male mice aged 8 weeks of C3H series with a body weight of 18 to 24g was subjected to depilation at a back portion thereof in a size of about 2× 3.5 cm. Then, each of the N-acylamino acid compounds as shown in Table 1 was dissolved in ethanol to a concentration of 1% by weight as a sample to be tested. Then 0.1 mℓ of the sample were applied to the depilated back portions of the mice once a day over a period of 3 weeks to visually observe the hair growth state. An evaluation was made of the hair growth effect by visually observing the state of trichogenous promotion in comparison with the back portions coated only with ethanol on the basis of the criterion in Table 1.

| Structure (SMILES) | Retrichogenous effect [1] | Solubility (w/w %) [2] [w/w %] |
| --- | --- | --- |
| CCCCCCCCCCCCCCC(=O)N[C@H](C(=O)O)[C@@H](C)CC [Example 1, N-pentadecanoyl-L-isoleucine] | ⓞ | 4.0 |
| CCCCCCCCCCCCCCC(=O)N[C@@H](CC(C)C)C(=O)O [Comp. Example 2, N-PDNY-L-leucine] | ⓞ | 2.1 |
| CCCCCCCCCCCCCCC(=O)N[C@@H](Cc1ccc(O)cc1)C(=O)O [Comp. Example 6, N-PDNY-L-tyrosine] | ⓞ | 0.7 |
| CCCCCCCCCCCCCCC(=O)N[C@H](C(=O)O)C(C)C [Comp. Example 4, N-PDNY-L-valine] | ⓞ | 2.5 |
| CCCCCCCCCCCCCCC(=O)N[C@@H](CC(=O)O)C(=O)O [Comp. Example 7, N-PDNY-L-asparatic acid] | ○ | 0.3 |
| CCCCCCCCCCCCCCC(=O)N[C@@H](C)C(=O)O [Comp. Example 1, N-PDNY-L-alanine] | ⓞ | 0.8 |
| CCCCCCCCCCCCCCC(=O)N[C@@H](CCSC)C(=O)O [Comp. Example 3, N-PDNY-L-methionine] | ⓞ |  |
| CCCCCCCCCCCCCCC(=O)N[C@@H](Cc1ccccc1)C(=O)O [Comp. Example 5, N-PDNY-L-phenyl-alanine] | ⓞ | 3.7 |
